# Reference: US12448369B2 (Edgewise Therapeutics, Inc., priority 2023, dated 2025)
# Marks after values point to notes of the source that are not given here.
# Tested on: Rabbit Psoas myofibrils (skeletal myosin ATPase)
# Experiment: Myofibril ATPase assay, rabbit psoas (skeletal) myofibrils
# Assay type: biochemical
# Conditions: rabbit psoas myofibrils; Y75 value
# Description: (§1) Example 1. Myofibril ATPase Assay
# (§2) Myofibril ATPase assays are known in the art to be useful in evaluating small molecules for the treatment of HCM and other cardiac indications. Myosin ATPase activity is assessed by using a coupled reaction system, in which ADP generated by the myosin ATPase function is coupled to the disappearance of NADH through the pyruvate kinase/lactate dehydrogenase (PK-LDH) system. ATPase activity produces ADP, which is used as a substrate for PK to produce pyruvate and regenerate ATP. The pyruvate is then used as a substrate by LDH to oxidize NADH to NAD+. The rate of the reaction is monitored through the time-dependent disappearance of NADH using absorbance at 340 nm, which, when the couple system is in stoichiometric excess, is directly correlated to the ATPase activity of the myosin. Inhibition of ATPase activity by the assayed compounds is indicated by a reduced rate of NADH loss, relative to vehicle-treated controls, over the experimental time window. Activation of ATPase activity by the assayed compounds is indicated by an increased rate of NADH loss, relative to vehicle-treated controls, over the experimental time window. Rabbit Psoas, Porcine atria, and Porcine ventricle are the primary sources of myofibril material.
# (§3) Materials: The following stock solutions and reagents were used in the Myofibril ATPase Assay:
# (§4) Stock Solutions of pCa buffer. Combine PIPES, CaCl2, and EGTA solutions with water. Adjust pH to 7.0 and bring final volume to 100 mL.
# (§5) Buffer A & Buffer B. Prepare buffers A and B according to the table below.
# (§6) Myofibril ATPase Assay Procedure: BSA, ATP, NADH, PEP, and DTT solutions were thawed at room temperature, then transferred to ice. Pellet-frozen myofibrils were transferred with approximately twice the required volume into a sufficiently large tube and capped. Myofibrils were thawed by rolling in a water bath for approximately 15 min at room temperature and cooled on ice. Buffers A and B were prepared by adjusting volumes as necessary for required number of wells and stored on ice. 0.5 μL of the compounds to be assayed were added into wells. 25 μL of Buffer A was dispensed into the wells, followed by 25 μL of Buffer B. The wells were measured for absorbance at 340 nm, using a kinetic protocol in which the wells are read every 1.5-2 min for 75 min. Assay data analysis was performed using a python script that filtered the raw data to retain those points falling between a starting and ending time and between a maximum and minimum absorbance, then used the filtered time-domain 340 nm absorbance data in each well to calculate a slope via linear regression analysis in units of mAU/min. Compound slopes were normalized between 100% and 0% activity, where 100% represented the slope of wells containing only compound vehicle, and fit to a 4-parameter logistic model. In addition to the fit parameters, the EC25% values were calculated, relative to the 100% normalized value. Additionally, the Y125 values were calculated for compounds that increased myosin ATP-ase activity. Fit parameters, calculated effective concentrations, filtered raw data, and calculated slopes were exported, in addition to compound-specific graphs of normalized ATPase activity versus concentration in μM. Each value reported in Table 5, Table 6, and Table 7 is either a Y75 value or a Y125 value. Values without a double cross sign, ‡, are Y75 values, which reflect the concentration required to reduce myosin ATP-ase activity by 25% (e.g., Y-axis activity value is 75% of initial value), relative to myosin ATP-ase activity in the absence of exogenous compound.
# Skeletal Myofibril Isolation:
# (§7) Myofibrils from various animals and tissue types were acquired from a variety of sources: rabbit psoas muscle was purchased from Pel-Freez Biologicals (Rogers, AR) and porcine cardiac muscle was purchased from Exemplar Genetics. All myofibrils were prepared using a method based upon those described in Herrmann et al. (1993) and summarized here. […]
row,Compound,Skeletal EC25 [µM]
1,"Cc1nccc2[nH]c(=O)c([C@H](C)C(=O)N[C@@H](C)c3ccc(F)cc3F)c(C(F)(F)F)c12 (single isomer, unassigned) [compound 413]",10.76
2,Cc1c(CC(=O)N[C@@H](CO)c2ccc(C#N)cc2F)c(=O)[nH]c2ccnc(OC3CC3)c12 [compound 204],0.07
3,"Cc1nccc2[nH]c(=O)c(CC(=O)N[C@H](CO)c3ncc(C#N)cc3F)c(C)c12 (single isomer, unassigned) [compound 247]",4.60
4,Cc1nccc2[nH]c(=O)c(CC(=O)N[C@H](CO)c3ccc(F)cc3F)c(C)c12 [compound 498],7.2
5,"Cc1c(CC(=O)N[C@H](c2ccc(F)cc2F)C(C)(C)O)c(=O)[nH]c2ccnc(C#N)c12 (single isomer, unassigned) [compound 280]",24.76
6,Cc1nccc2[nH]c(=O)c(CC(=O)N[C@@H](CO)c3ccncc3)c(C)c12 [compound 293],73.40
7,Cc1c(CC(=O)N[C@H](CO)c2ccc(F)cc2F)c(=O)[nH]c2ccnc(C(F)(F)F)c12 [compound 231],100.00
8,Cc1c(CC(=O)N[C@H](CO)c2ccc(C#N)cc2F)c(=O)[nH]c2ccnc(OC3CC3)c12 [compound 203],1.10
9,COC[C@H](NC(=O)Cc1c(C)c2c(C#N)nccc2[nH]c1=O)c1ccc(C#N)cc1F [compound 170],0.03
10,"COc1ccc([C@@H](C)NC(=O)Cc2c(C)c3c(C)nccc3[nH]c2=O)cn1 (single isomer, unassigned) [compound 290]",100.00
11,C[C@H](NC(=O)Cc1cc2c(O)nccc2[nH]c1=O)c1ccc(F)cc1F [compound 3013],100.00

# Same assay, conditions: rabbit psoas myofibrils; Y125 value, not a Y75 value
row,Compound,"Skeletal EC25 (Y125 value, marked ‡)"
1,"C[C@H](NC(=O)[C@H](C)c1cc2c(C3CC3)nccc2[nH]c1=O)c1ccc(F)cc1F (single isomer, unassigned) [compound 3506]",108.50‡ μM

# Same assay, conditions: ‡ Y125 value, not a Y75 value (125% activity relative to no compound); rabbit psoas myofibrils
row,Compound,Skeletal EC25
1,"C[C@H](NC(=O)C1(c2cc3cc(F)ccc3[nH]c2=O)CC1)c1cc(C#N)ccn1 (single isomer, unassigned) [compound 2537]",100.00‡ μM

# Tested on: Porcine atria myofibrils (atrial myosin ATPase)
# Experiment: Myofibril ATPase assay, porcine atria myofibrils
# Assay type: biochemical
# Conditions: Y75 value (no ‡ mark); porcine atria myofibrils
# Description: as §1, §2, §3, §4, §5, §6, §7
row,Compound,Atrial EC25 [µM]
1,"C[C@H](NC(=O)C1(c2cc3cc(F)ccc3[nH]c2=O)CC1)c1cc(C#N)ccn1 (single isomer, unassigned) [compound 2537]",100.00
2,"Cc1c(Cl)ccc2[nH]c(=O)c(CC(=O)N[C@@H](C)c3ncc(C#N)cc3F)c(C)c12 (single isomer, unassigned) [compound 2046]",0.05
3,"Cc1c(C(F)(F)C(=O)N[C@H]2COc3cc(C#N)cc(F)c32)c(=O)[nH]c2ccc(F)cc12 (single isomer, unassigned) [compound 2554]",0.09

# Same assay, conditions: porcine atria myofibrils; Y75 value (75% activity relative to no compound)
row,Compound,Atrial EC25 [µM]
1,"Cc1nccc2[nH]c(=O)c([C@H](C)C(=O)N[C@@H](C)c3ccc(F)cc3F)c(C(F)(F)F)c12 (single isomer, unassigned) [compound 413]",20.63
2,Cc1c(CC(=O)N[C@@H](CO)c2ccc(C#N)cc2F)c(=O)[nH]c2ccnc(OC3CC3)c12 [compound 204],0.47
3,"Cc1nccc2[nH]c(=O)c(CC(=O)N[C@H](CO)c3ncc(C#N)cc3F)c(C)c12 (single isomer, unassigned) [compound 247]",34.93
4,Cc1nccc2[nH]c(=O)c(CC(=O)N[C@H](CO)c3ccc(F)cc3F)c(C)c12 [compound 498],100
5,"Cc1c(CC(=O)N[C@H](c2ccc(F)cc2F)C(C)(C)O)c(=O)[nH]c2ccnc(C#N)c12 (single isomer, unassigned) [compound 280]",100.00
6,Cc1nccc2[nH]c(=O)c(CC(=O)N[C@@H](CO)c3ccncc3)c(C)c12 [compound 293],100.00
7,Cc1c(CC(=O)N[C@H](CO)c2ccc(F)cc2F)c(=O)[nH]c2ccnc(C(F)(F)F)c12 [compound 231],100.00
8,Cc1c(CC(=O)N[C@H](CO)c2ccc(C#N)cc2F)c(=O)[nH]c2ccnc(OC3CC3)c12 [compound 203],100.00
9,COC[C@H](NC(=O)Cc1c(C)c2c(C#N)nccc2[nH]c1=O)c1ccc(C#N)cc1F [compound 170],0.08
10,"COc1ccc([C@@H](C)NC(=O)Cc2c(C)c3c(C)nccc3[nH]c2=O)cn1 (single isomer, unassigned) [compound 290]",100.00

# Target: T1, Porcine ventricle myofibrils (ventricular myosin ATPase) (Sus scrofa, UniProt P79293)
# T1 construct: Myofibrils from porcine cardiac muscle was isolated from the left ventricle of Yucatan minipigs; tissue Exemplar Genetics; host or cells: left ventricle of Yucatan minipigs, myofibrils prepared in house
# Experiment: Myofibril ATPase assay, porcine ventricle myofibrils
# Assay type: biochemical, porcine (Yucatan minipigs)
# Conditions: Y75 value (no ‡ mark); porcine ventricle myofibrils
# Description: as §1, §2, §3, §4, §5, §6
# Cardiac Myofibril Isolation:
# Myofibrils from porcine cardiac muscle was isolated from the left ventricle of Yucatan minipigs. Myofibrils were prepared using a method based upon those described in Herrmann et al. (1993) and summarized here. […]
# T1 sequence (P79293 whole entry): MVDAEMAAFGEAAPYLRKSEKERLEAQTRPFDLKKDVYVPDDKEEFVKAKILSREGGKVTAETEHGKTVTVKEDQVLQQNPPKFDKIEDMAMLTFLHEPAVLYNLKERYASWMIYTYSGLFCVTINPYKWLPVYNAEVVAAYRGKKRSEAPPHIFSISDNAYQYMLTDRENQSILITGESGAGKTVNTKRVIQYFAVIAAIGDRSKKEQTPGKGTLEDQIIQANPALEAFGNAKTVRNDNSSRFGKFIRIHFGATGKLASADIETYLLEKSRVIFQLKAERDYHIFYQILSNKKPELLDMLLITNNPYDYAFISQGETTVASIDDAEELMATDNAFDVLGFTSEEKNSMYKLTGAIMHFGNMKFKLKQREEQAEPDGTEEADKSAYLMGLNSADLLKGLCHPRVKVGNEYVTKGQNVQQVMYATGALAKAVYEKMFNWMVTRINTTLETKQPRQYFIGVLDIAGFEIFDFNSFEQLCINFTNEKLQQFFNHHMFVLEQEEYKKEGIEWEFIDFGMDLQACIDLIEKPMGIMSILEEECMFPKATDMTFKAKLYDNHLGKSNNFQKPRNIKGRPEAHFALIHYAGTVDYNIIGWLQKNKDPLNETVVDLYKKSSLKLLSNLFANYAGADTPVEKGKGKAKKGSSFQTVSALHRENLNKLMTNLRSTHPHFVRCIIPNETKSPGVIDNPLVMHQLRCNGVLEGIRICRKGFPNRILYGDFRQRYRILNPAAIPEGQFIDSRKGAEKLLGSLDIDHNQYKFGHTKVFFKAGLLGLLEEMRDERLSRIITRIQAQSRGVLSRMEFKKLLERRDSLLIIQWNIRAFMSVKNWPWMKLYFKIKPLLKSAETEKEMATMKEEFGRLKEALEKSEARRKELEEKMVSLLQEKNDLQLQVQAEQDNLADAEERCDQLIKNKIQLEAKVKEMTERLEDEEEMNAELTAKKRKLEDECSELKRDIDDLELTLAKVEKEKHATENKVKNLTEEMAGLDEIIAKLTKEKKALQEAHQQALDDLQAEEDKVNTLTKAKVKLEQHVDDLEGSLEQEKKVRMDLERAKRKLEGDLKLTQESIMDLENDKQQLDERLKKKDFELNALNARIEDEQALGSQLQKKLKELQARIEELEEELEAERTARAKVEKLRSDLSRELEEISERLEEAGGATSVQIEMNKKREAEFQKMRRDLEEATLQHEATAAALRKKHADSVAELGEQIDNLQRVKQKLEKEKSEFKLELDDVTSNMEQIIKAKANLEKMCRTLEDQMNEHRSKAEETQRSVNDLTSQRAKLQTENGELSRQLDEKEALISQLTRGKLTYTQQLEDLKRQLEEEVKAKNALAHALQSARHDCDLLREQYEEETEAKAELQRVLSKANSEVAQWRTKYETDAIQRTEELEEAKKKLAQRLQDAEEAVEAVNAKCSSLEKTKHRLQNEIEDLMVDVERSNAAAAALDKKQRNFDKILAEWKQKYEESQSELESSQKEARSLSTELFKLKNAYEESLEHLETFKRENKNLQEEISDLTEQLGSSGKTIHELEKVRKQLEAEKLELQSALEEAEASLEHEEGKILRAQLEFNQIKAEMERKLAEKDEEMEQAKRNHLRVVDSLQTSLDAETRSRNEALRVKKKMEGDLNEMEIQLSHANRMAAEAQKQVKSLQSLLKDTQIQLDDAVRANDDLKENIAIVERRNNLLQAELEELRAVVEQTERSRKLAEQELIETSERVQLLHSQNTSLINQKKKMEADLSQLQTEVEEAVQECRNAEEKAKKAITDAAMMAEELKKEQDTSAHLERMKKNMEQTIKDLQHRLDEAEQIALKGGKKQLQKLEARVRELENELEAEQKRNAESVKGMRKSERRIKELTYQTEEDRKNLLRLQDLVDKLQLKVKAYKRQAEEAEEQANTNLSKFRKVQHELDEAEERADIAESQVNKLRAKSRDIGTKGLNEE
row,Compound,Ventricular EC25 [µM]
1,"Cc1c(Cl)ccc2[nH]c(=O)c(CC(=O)N[C@@H](C)c3ncc(C#N)cc3F)c(C)c12 (single isomer, unassigned) [compound 2046]",0.10
2,"Cc1c(C(F)(F)C(=O)N[C@H]2COc3cc(C#N)cc(F)c32)c(=O)[nH]c2ccc(F)cc12 (single isomer, unassigned) [compound 2554]",0.20

# Same assay, conditions: porcine ventricle myofibrils; Y75 value
row,Compound,Ventricular EC25 [µM]
1,"Cc1nccc2[nH]c(=O)c([C@H](C)C(=O)N[C@@H](C)c3ccc(F)cc3F)c(C(F)(F)F)c12 (single isomer, unassigned) [compound 413]",100.00
2,Cc1c(CC(=O)N[C@@H](CO)c2ccc(C#N)cc2F)c(=O)[nH]c2ccnc(OC3CC3)c12 [compound 204],7.78
3,"Cc1nccc2[nH]c(=O)c(CC(=O)N[C@H](CO)c3ncc(C#N)cc3F)c(C)c12 (single isomer, unassigned) [compound 247]",100.00
4,Cc1nccc2[nH]c(=O)c(CC(=O)N[C@H](CO)c3ccc(F)cc3F)c(C)c12 [compound 498],100
5,"Cc1c(CC(=O)N[C@H](c2ccc(F)cc2F)C(C)(C)O)c(=O)[nH]c2ccnc(C#N)c12 (single isomer, unassigned) [compound 280]",100.00
6,Cc1nccc2[nH]c(=O)c(CC(=O)N[C@@H](CO)c3ccncc3)c(C)c12 [compound 293],100.00
7,Cc1c(CC(=O)N[C@H](CO)c2ccc(F)cc2F)c(=O)[nH]c2ccnc(C(F)(F)F)c12 [compound 231],100.00
8,Cc1c(CC(=O)N[C@H](CO)c2ccc(C#N)cc2F)c(=O)[nH]c2ccnc(OC3CC3)c12 [compound 203],100.00
9,COC[C@H](NC(=O)Cc1c(C)c2c(C#N)nccc2[nH]c1=O)c1ccc(C#N)cc1F [compound 170],1.02
10,"COc1ccc([C@@H](C)NC(=O)Cc2c(C)c3c(C)nccc3[nH]c2=O)cn1 (single isomer, unassigned) [compound 290]",100.00
11,"C[C@H](NC(=O)[C@H](C)c1cc2c(C3CC3)nccc2[nH]c1=O)c1ccc(F)cc1F (single isomer, unassigned) [compound 3506]",100.00
12,C[C@H](NC(=O)Cc1cc2c(O)nccc2[nH]c1=O)c1ccc(F)cc1F [compound 3013],100.00

# Same assay, conditions: ‡ Y125 value, not a Y75 value (125% activity relative to no compound); porcine ventricle myofibrils
row,Compound,Ventricular EC25
1,"C[C@H](NC(=O)C1(c2cc3cc(F)ccc3[nH]c2=O)CC1)c1cc(C#N)ccn1 (single isomer, unassigned) [compound 2537]",100.00‡ μM
